{"source": "patent US11446253B2", "about": "“Ionic liquids for internal delivery” (priority 2017, dated 2022)", "key": {"[1]": {"system": "Caco-2 monolayers", "test": "FITC-insulin transport across Caco-2 monolayers", "assay_type": "cell-based, human", "details": "Caco-2 monolayers, end of study at 5 h, 10 mM CAGE or saline", "protocol": "TEER was measured on a regular basis and when it reached above 200 ohms·cm^2, indicating sufficient tight junction integrity between cells, transport study was performed.\n(§1) After the end of study at 5 h, the FITC-insulin concentration in the aliquots were measured using a plate reader (Tecan, Infinite M1000, Mannedorf, Switzerland) at 495/520 nm excitation/emission wavelengths and plotted as % FITC-insulin transport vs time. Furthermore, TEER was measured at every time point when aliquots were withdrawn from the transwells and plotted as % change from initial value vs time.\nTEER was measured on a regular basis and when it reached above 200 ohms. cm2, indicating sufficient tight junction integrity between cells, transport study was performed.\nas §1, with “[…]” for “% change from initial value”"}, "[2]": {"system": "non-diabetic male Wistar rats", "test": "Blood glucose lowering after intrajejunal administration", "assay_type": "in vivo, rat", "experimental": "Before the start of the study, the rats were anesthetized, abdominal hair clipped and the area prepped for surgery using 70% ethanol and betadine. An incision was made in the abdomen to expose the intestine. […] Each formulation was tested in 6 rats with the exception of saline which was tested in only 3 rats. Thereafter, intestinal section was placed back into the abdomen and the muscle and skin sutured. Blood glucose was determined using a commercial glucose meter in the beginning and at every 0.5 h till the end of study at 5 h. The animals remained anesthetized throughout the study, at the end of which they were euthanized and the intestinal section around the injection site was removed for further histological examination to determine toxicity, if any. […] The results were plotted as % change in blood glucose levels with respect to initial reading at t=0 vs time.\nBefore the start of the study, the rats were anesthetized, abdominal hair clipped, and the surgery area was prepped using 70% ethanol and betadine. An incision was made in the abdomen to expose the intestine. […] The time zero blood glucose was taken after the intestine was exposed i.e. immediately prior to the injections. Each formulation was tested in 6 rats with the exception of saline which was tested in only 3 rats. Thereafter, intestinal section was placed back into the abdomen and the muscle and skin sutured. Blood glucose was determined using a commercial glucose meter at the beginning and at every 0.5 h till the end of study at 5 h. Loss in body temperature in the animals during anesthesia was prevented by placing the animals on temperature controlled warming pads prior to surgery followed by additional towel cover after surgery. The animals remained anesthetized throughout the study and were euthanized after 5 h. At the end of study at 5 h, the intestinal section around the injection site was removed for further histological examination to determine toxicity, if any. […] The results were plotted as % change in blood glucose levels with respect to initial reading vs time. In addition, the saline group was considered as fasting control and graphs were plotted after subtracting blood glucose levels of the saline group."}, "[3]": {"test": "Serum insulin pharmacokinetics (human insulin ELISA)", "details": "for AUCtotal: insulin-CAGE 5 U/kg intrajejunal, insulin 2 U/kg subcutaneous", "protocol": "Standard protocol was followed for separation of serum from whole blood. Briefly, the blood samples were left undisturbed at RT for 15-30 minutes to allow clot formation, followed by centrifugation at 2,000 g for 10 minutes.\nFasting prior to anti-diabetic efficacy studies is routinely done (29, 62, 63). It helps avoid fluctuations in the blood glucose levels as a result of eating, which can vary between animals based on the amount and time of food intake. All animal experiments were performed in accordance with the University of California Santa Barbara animal care committee guidelines and to the Guide for the Care and Use of Animals of the Institute of Laboratory Animal Resources, National Research Council. […] The time zero blood glucose was taken after the intestine was exposed i.e. immediately prior to the injections. […] Loss in body temperature in the animals during anesthesia was prevented by placing the animals on temperature controlled warming pads prior to surgery followed by additional towel cover after surgery. The animals remained anesthetized throughout the study and were euthanized after 5 h. […] In addition, the saline group was considered as fasting control and graphs were plotted after subtracting blood glucose levels of the saline group. […] Standard protocol was followed for separation of serum from whole blood. Briefly, blood samples were left undisturbed at RT for 15-30 minutes to clot, followed by centrifugation at 2,000 g for 10 minutes. […] Pharmacodynamic bioavailability was calculated using AUC obtained from efficacy plots."}, "[4]": {"system": "non-diabetic male Wistar rats", "test": "Blood glucose lowering after oral administration in enterically coated capsules", "assay_type": "in vivo, rat", "protocol": "(§2) For the oral efficacy study, adult non-diabetic male Wistar rats were fasted overnight but given free access to water. On the next day, the capsules were administered to the rats using an oral gavage followed by subcutaneous administration of 5 mg/kg metoclopramide HCl to promote gastric emptying. Blood glucose was thereafter measured using a commercial glucose meter and subsequently every hour till 12 h. Rats were fasted throughout the period of study. […] In addition, the efficacy of subcutaneously injected 2 U/kg insulin-saline was also evaluated. […] The results were plotted as percent change in blood glucose level vs time.\nas §2, with “To determine the efficacy of insulin-CAGE administered through the oral route, elongated size 9 capsules were used. […] Following this, the capsules were enterically coated three times with 12.5% w/v Eudragit® L-100 dissolved in isopropanol. For” for “For”, “Next” for “On the next”, “was” for “was also”, “time. […] After 12 h of study, rats were euthanized, and small intestinal sections were collected for tissue histology.” for “time.”"}, "[5]": {"system": "non-diabetic male Wistar rats", "test": "In vivo bioactivity of insulin isolated from CAGE after storage", "set-up": "species or system rat", "details": "fresh, 1 U/kg subcutaneous, listed as Freshly prepared insulin solution", "text": "Prior to insulin injections, rats were fasted overnight but given free access to water and fasting continued throughout the study to eliminate variability in blood glucose due to food consumption. The results were plotted as % change in blood glucose compared to initial level vs time."}, "[6]": {"system": "Non-diabetic Wistar rats", "test": "Consecutive oral dosing of neat CAGE capsule and insulin capsule", "assay_type": "in vivo, rat", "details": "10 U/kg insulin oral, 10 h", "protocol": "Non-diabetic Wistar rats were fasted overnight for 8 h but given access to water ad libitum. […] The blood glucose for time 0 was evaluated at this point. […] Fasting was continued with free access to water till the end of study at 12 h and blood glucose was evaluated at various time points. The results were plotted as % change in blood glucose compared to initial level vs time."}, "[7]": {"details": "stored at 4° C.; cited from earlier work"}, "[8]": {"system": "Caco-2 cells", "test": "Tight junction integrity (TEER) in Caco-2 cells", "assay_type": "cell-based, human", "details": "FITC-insulin with 10 mM CAGE or saline, 5 h", "protocol": "[…] Furthermore, TEER was measured at every time point when aliquots were withdrawn from the transwells and plotted as % change from initial value vs time.\nTEER values were recorded for each insert. […] TEER was plotted as % change from initial value vs time."}, "[9]": {"biological_target": "T1, bovine trypsin (Bos taurus, UniProt P00760)", "T1 construct": "purchased MP Biomedicals (Santa Ana, Calif., USA)", "T1 sequence (P00760 24-246)": "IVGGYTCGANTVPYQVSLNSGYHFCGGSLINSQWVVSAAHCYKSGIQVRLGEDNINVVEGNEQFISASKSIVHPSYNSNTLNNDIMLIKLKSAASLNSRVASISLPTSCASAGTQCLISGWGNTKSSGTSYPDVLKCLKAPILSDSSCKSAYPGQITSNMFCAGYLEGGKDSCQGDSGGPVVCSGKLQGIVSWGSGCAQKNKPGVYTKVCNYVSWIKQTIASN", "test": "Trypsin-mediated degradation of insulin (LC-MS)", "assay_type": "biochemical", "details": "incubated with trypsin, 37° C., 24 h", "protocol": "Immediately after vortex (time=0 h; t0) and at predetermined time intervals, 0.1 mL of the insulin-trypsin mixture was aliquoted, and the enzyme activity was inhibited by the addition of 0.1 mL of ice-cold 0.1% trifluoroacetic acid/acetonitrile solution (69:31, v/v). The samples were analyzed by liquid chromatography-mass spectrometry (LC-MS) to determine the amount of intact insulin in the solution at different times. An Agilent 1290/6140 Ultra High Performance Liquid Chromatography/Mass Spectrometer consisting of a 1290 Infinity LC™ binary pump, thermostat column compartment, 1290 Infinity autosampler, an Agilent 1290 diode array detector and an Agilent 6140 quadrupole MSD system was used for the analyses. For an analysis, 3 μL of the samples were injected into an Agilent 300SB-C18 2.1×75 mm, 5 μm, maintained at 25° C. and eluted with a mobile phase consisting of a gradient mixture of deionized water with 0.1% formic acid (FA) (A) and acetonitrile (B) with 0.1% FA. A gradient of 95-5% (0 min), 0-100% (10 min), 0-100% (15 min), 95-5% (15.1 min), 95-5% (18 min) A:B was used for each run. […] All experiments were conducted in triplicate and are reported are mean±standard deviation."}}, "note": "Values joined by “and” are separate entries in the source; they are usually repeats but may differ in a detail not shown here. Equal entries are not always repeated.", "data": [{"substance": "insulin: human insulin (Sigma-Aldrich) in saline or buffer, comparator", "values": [{"measurement": "FITC-insulin transport", "setting": "[1]", "result": 10, "unit": "%"}, {"measurement": "blood glucose, % of initial level", "setting": "[2]; 2 U/kg subcutaneous, 1 h", "result": "48.76±7.55% and 49±8%"}, {"measurement": "maximum drop in blood glucose", "setting": "[2]; 2 U/kg subcutaneous, 1 h", "result": 51, "unit": "%"}, {"measurement": "blood glucose, % of initial level", "setting": "[2]; 2 U/kg subcutaneous, 5 h", "result": "101.61±6.69% and 101±7%"}, {"measurement": "decrease in blood glucose of control groups, % of initial level", "setting": "[2]; intrajejunal controls (neat CAGE, 3 U/kg insulin-saline), 5 h", "result": "about 25%"}, {"measurement": "serum insulin concentration", "setting": "[3]; 3 U/kg intrajejunal", "result": "hardly increased"}, {"measurement": "serum insulin level with time", "setting": "[3]; 5 U/kg intrajejunal", "result": "did not show any increase"}, {"measurement": "AUCtotal", "setting": "[3]; Table 1", "result": 237.6, "unit": "μIU · h/ml"}, {"measurement": "AUCtotal", "setting": "[3]; Table 2", "result": 237.6, "unit": "μIU · h/mL"}, {"measurement": "blood glucose, % of initial level", "setting": "[4]; 2 U/kg subcutaneous, 1 h", "result": "51.43±5.25% and 51±5%"}, {"measurement": "drop in blood glucose", "setting": "[4]; 2 U/kg subcutaneous, 1 h", "result": "50% and 49%"}, {"measurement": "decrease in blood glucose of formulation controls", "setting": "[4]; oral controls, 12 h", "result": "about 25%"}, {"measurement": "blood glucose, % of initial level", "setting": "[5]; 1 h", "result": "50.73±2.47% and 51±2%"}, {"measurement": "drop in blood glucose", "setting": "[5]; 1 h", "result": "50% and 49%"}, {"measurement": "blood glucose, % of initial level", "setting": "[5]; 2 h", "result": "49.59±4.4% and 50±4%"}, {"measurement": "blood glucose, % of original level", "setting": "[5]; 5 h", "result": "92.05±4.8% and 92±5%"}, {"measurement": "blood glucose drop", "setting": "[6]", "result": "around 34%"}, {"measurement": "blood glucose, % of initial levels", "setting": "[6]", "result": "66.9±7.1", "unit": "%"}, {"measurement": "stability at 4° C.", "setting": "[7]", "result": "2 to 7", "unit": "days"}, {"measurement": "TEER, % of initial value", "setting": "[8]", "result": "98.5±2.64", "unit": "%"}, {"measurement": "intact insulin remaining", "setting": "[9]", "result": "5±0.4", "unit": "%"}]}]}
